Experimental data published in PubChem BioAssay AID248 (DTP/NCI, 2004).
Toxic doses and inconclusive results are not listed. Rule as the data show it: active = T/C of 150% or more; inactive = T/C below 125%.

Tested on: L1210 leukemia ip in BDF1 mice, survival T/C
Test: NCI In Vivo Anticancer Drug Screen. Data for tumor model L1210 Leukemia (intraperitoneal) in B6D2F1 (BDF1) mice
Conditions: endpoint: mean survival time, higher = longer survival
Summary of the method: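 Tumor cells were implanted, animals were treated, and survival was followed. The result divides the treated measurement by the vehicle-control measurement.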

[1] = dose: 100.0 mg/kg/injection, schedule: Q01DX001 (ip), vehicle: carboxymethylcellulose (CMC)
[2] = dose: 200.0 mg/kg/injection, schedule: Q01DX001 (ip), vehicle: carboxymethylcellulose (CMC)
[3] = dose: 100.0 mg/kg/injection, schedule: Q04DX003 (ip), vehicle: Klucel (hydroxypropylcellulose) (HPC)
[4] = dose: 200.0 mg/kg/injection, schedule: Q04DX003 (ip), vehicle: Klucel (hydroxypropylcellulose) (HPC)
[5] = dose: 400.0 mg/kg/injection, schedule: Q04DX003 (ip), vehicle: Klucel (hydroxypropylcellulose) (HPC)
[6] = dose: 100.0 mg/kg/injection, schedule: Q01DX001 (ip), vehicle: saline
[7] = dose: 200.0 mg/kg/injection, schedule: Q01DX001 (ip), vehicle: saline
[8] = dose: 400.0 mg/kg/injection, schedule: Q01DX001 (ip), vehicle: saline

Measured: T/C

O=C(C[n+]1cccc(OC(=O)c2ccccc2)c1)c1ccc(-c2ccccc2)cc1
inactive: dose: 75.0 mg/kg/injection, schedule: Q04DX003 (ip), vehicle: Klucel (hydroxypropylcellulose) (HPC) 100 % of control | dose: 100.0 mg/kg/injection, schedule: Q01DX001 (ip), vehicle: Klucel (hydroxypropylcellulose) (HPC) 100 % of control | dose: 150.0 mg/kg/injection, schedule: Q04DX003 (ip), vehicle: Klucel (hydroxypropylcellulose) (HPC) 91 % of control | dose: 200.0 mg/kg/injection, schedule: Q01DX001 (ip), vehicle: Klucel (hydroxypropylcellulose) (HPC) 97 % of control | dose: 300.0 mg/kg/injection, schedule: Q04DX003 (ip), vehicle: Klucel (hydroxypropylcellulose) (HPC) 96 % of control | dose: 400.0 mg/kg/injection, schedule: Q01DX001 (ip), vehicle: Klucel (hydroxypropylcellulose) (HPC) 101 % of control

[N-]=[N+]=NC(=O)C1C2CC3C(C2)C31 (stereo not given)
inactive: [1] 95 % of control | [2] 88 % of control

O=C(COc1ccc(Cl)c(Cl)c1)Nc1ccc[n+](Cc2ccc(S(=O)(=O)F)c(Cl)c2)c1
inactive: [3] 98 % of control | [4] 93 % of control | [5] 97 % of control

COc1cccc(N=Nc2c(N)nc(N)nc2N)c1
inactive: dose: 75.0 mg/kg/injection, schedule: Q01DX001 (ip), vehicle: carboxymethylcellulose (CMC) 104 % of control | dose: 150.0 mg/kg/injection, schedule: Q01DX001 (ip), vehicle: carboxymethylcellulose (CMC) 100 % of control | dose: 300.0 mg/kg/injection, schedule: Q01DX001 (ip), vehicle: carboxymethylcellulose (CMC) 109 % of control

CCCCC(=O)N/N=C/c1cc(OCC)c(OCC)cc1OCC
inactive: [1] 96 % of control | [2] 98 % of control | dose: 400.0 mg/kg/injection, schedule: Q01DX001 (ip), vehicle: carboxymethylcellulose (CMC) 91 % of control

CC1(C)C/C(=C\c2cccc(Cl)c2)C(=O)c2ccccc21
inactive: [3] 108 % of control | [4] 106 % of control | [5] 110 % of control

COC(=O)c1cc(C)c(C)cc1N
inactive: [6] 102 % of control | [7] 96 % of control | [8] 93 % of control

Cc1ccc[n+](CC(=O)c2ccccc2)c1
inactive: dose: 0.19 mg/kg/injection, schedule: Q04DX003 (ip), vehicle: saline 102 % of control | dose: 0.39 mg/kg/injection, schedule: Q01DX009 (ip), vehicle: saline 98 % of control | dose: 0.39 mg/kg/injection, schedule: Q04DX003 (ip), vehicle: saline 98 % of control | dose: 0.78 mg/kg/injection, schedule: Q01DX009 (ip), vehicle: saline 106 % of control | dose: 0.78 mg/kg/injection, schedule: Q04DX003 (ip), vehicle: saline 96 % of control | dose: 1.56 mg/kg/injection, schedule: Q04DX003 (ip), vehicle: saline 98 % of control | dose: 75.0 mg/kg/injection, schedule: Q01DX001 (ip), vehicle: saline 97 % of control | dose: 150.0 mg/kg/injection, schedule: Q01DX001 (ip), vehicle: saline 90 % of control | dose: 300.0 mg/kg/injection, schedule: Q01DX001 (ip), vehicle: saline 88 % of control

CC1(C(=O)O)CCCC1C(CCC(=O)O)C(=O)O (stereo not given)
inactive: [6] 97 % of control | [7] 95 % of control | [8] 92 % of control
